Measurements from ChEMBL document CHEMBL5247593, “Novel heterocyclic hydroxamates as inhibitors of the mycobacterial zinc metalloprotease Zmp1 to probe its mechanism of function” (Eur J Med Chem, 2022).

How the values were obtained:
[1] = test system: Mycobacterium tuberculosis; assay: Inhibition of Mycobacterium tuberculosis Zmp1 at 8 to 40 uM by MALDI-TOF-MS analysis; settings: dose 8-40 µM
[2] = test system: Mycobacterium tuberculosis; assay: Antimycobacterial activity against Mycobacterium tuberculosis H37Ra ATCC 25177 assessed as inhibition of bacterial growth at 128 uM measured after 7 days by luminescence based analysis relative to control; assay type: functional; settings: H37Ra ATCC 25177, 168 h, time 7 day
[3] = test system: RAW264.7; assay: Cytotoxicity against mouse RAW264.7 cells assessed as inhibition of cell growth measured after 72 hrs by resazurin staining based […] analysis; assay type: functional; settings: RAW264.7, 72 h
[4] = test system: MRC5; assay: Cytotoxicity against human MRC5 cells assessed as inhibition of cell growth measured after 72 hrs by resazurin staining based […] analysis; assay type: functional; settings: MRC5, 72 h
[5] = test system: Mycobacterium tuberculosis; assay: Antimycobacterial activity against Mycobacterium tuberculosis H37Ra infected in mouse RAW264.7 cells assessed as reduction in intracellular bacterial survival at 128 uM incubated for 3 days by luminescence based analysis relative to control; assay type: functional; settings: time 3 day

Structure (SMILES) | inhibition [1] | inhibition at 128 µM [2] | IC50 ([3]; read-out: IC50) | IC50 [4] | Activity [5] | IC50 [3]
C=CCONC(=O)Cn1cc(C(=O)N[C@@H](C)C(=O)N[C@H](C(=O)O)C(C)C)c2ccccc21 | 50% | 13.6% | > 128 µM | > 128 µM | – | –
COC(=O)[C@@H](NC(=O)c1cccc(/C=C2\SC(=O)N(CC(=O)NOCc3ccccc3)C2=O)c1)C(C)C | – | 6.3% | > 128 µM | > 128 µM | 35.1% | –
C=CCONC(=O)Cn1ccc(C(=O)N[C@@H](C)C(=O)N[C@H](C(=O)O)C(C)C)c1 | 27% | 12.8% | > 128 µM | > 128 µM | – | –
CC(C)C[C@H](NC(=O)CNC(=O)c1ccn(CC(=O)NOCc2ccccc2)c1)C(=O)O | 26% | 9.2% | > 128 µM | > 128 µM | – | –
C=CCONC(=O)Cn1ccc(C(=O)N[C@@H](C)C(=O)N[C@@H](CC(C)C)C(=O)O)c1 | 88% | 13.8% | > 128 µM | > 128 µM | – | –
CC(C)C[C@H](NC(=O)[C@H](C)NC(=O)c1cn(CC(=O)NOCc2ccccc2)c2ccccc12)C(=O)O | 56% | 13.6% | > 128 µM | > 128 µM | – | –
CO[C@H]1/C=C/O[C@@]2(C)Oc3c(C)c(O)c4c(O)c(c(/C=N/N5CCN(C)CC5)c(O)c4c3C2=O)NC(=O)/C(C)=C\C=C\[C@H](C)[C@H](O)[C@@H](C)[C@@H](O)[C@@H](C)[C@H](OC(C)=O)[C@@H]1C [RIFAMPIN] | – | 100% | – | – | – | –
C=CCONC(=O)CN1C(=O)S/C(=C\c2cccc(C(=O)N[C@H](C(=O)OC)C(C)C)c2)C1=O | – | 3.4% | > 128 µM | > 128 µM | 14.1% | –
C=CCONC(=O)Cn1cc(C(=O)NCC(=O)N[C@H](C(=O)O)C(C)C)c2ccccc21 | 56% | 10.3% | > 128 µM | > 128 µM | – | –
CC/C(=C(\c1ccccc1)c1ccc(OCCN(C)C)cc1)c1ccccc1 [TAMOXIFEN] | – | – | – | 17.2 µM | – | 18.5 µM
C=CCONC(=O)Cn1cc(C(=O)N[C@@H](C)C(=O)N[C@@H](CC(C)C)C(=O)O)c2ccccc21 | 86% | 12.4% | > 128 µM | > 128 µM | – | –
CC(C)[C@H](NC(=O)CNC(=O)c1cn(CC(=O)NOCc2ccccc2)c2ccccc12)C(=O)O | 69% | 30.3% | > 128 µM | > 128 µM | 37.2% | –
CC(C)[C@H](NC(=O)[C@H](C)NC(=O)c1ccn(CC(=O)NOCc2ccccc2)c1)C(=O)O | 16% | 6.9% | > 128 µM | > 128 µM | – | –
COC(=O)[C@H](CC(C)C)NC(=O)c1ccc(/C=C2\SC(=O)N(CC(=O)NOCc3ccccc3)C2=O)cc1 | 5% | 2% | > 128 µM | > 128 µM | 80.3% | –
COC(=O)[C@@H](NC(=O)c1ccc(/C=C2\SC(=O)N(CC(=O)NOCc3ccccc3)C2=O)cc1)C(C)C | 41% | 6.2% | > 128 µM | > 128 µM | 83.2% | –
CC(C)[C@H](NC(=O)[C@H](C)NC(=O)c1cn(CC(=O)NOCc2ccccc2)c2ccccc12)C(=O)O | 59% | 23.6% | > 128 µM | > 128 µM | – | –
COc1nc2ccc(Br)cc2cc1[C@@H](c1ccccc1)[C@@](O)(CCN(C)C)c1cccc2ccccc12 [BEDAQUILINE] | – | 100% | – | – | – | –
CC(C)C[C@H](NC(=O)CNC(=O)c1cn(CC(=O)NOCc2ccccc2)c2ccccc12)C(=O)O | 57% | 11.1% | > 128 µM | > 128 µM | – | –
CC(C)C[C@H](NC(=O)[C@H](C)NC(=O)c1ccn(CC(=O)NOCc2ccccc2)c1)C(=O)O | 62% | 3.2% | > 128 µM | > 128 µM | – | –
C=CCONC(=O)CN1C(=O)S/C(=C\c2cccc(C(=O)N[C@@H](CC(C)C)C(=O)OC)c2)C1=O | 47% | 3.2% | > 128 µM | > 128 µM | 46.3% | –
CC(C)[C@H](NC(=O)CNC(=O)c1ccn(CC(=O)NOCc2ccccc2)c1)C(=O)O | 70% | 5.9% | > 128 µM | > 128 µM | – | –
C=CCONC(=O)Cn1cc(C(=O)NCC(=O)N[C@@H](CC(C)C)C(=O)O)c2ccccc21 | 47% | 14.6% | > 128 µM | > 128 µM | – | –
C=CCONC(=O)Cn1ccc(C(=O)NCC(=O)N[C@H](C(=O)O)C(C)C)c1 | 14% | – | – | – | – | –
C=CCONC(=O)Cn1ccc(C(=O)NCC(=O)N[C@@H](CC(C)C)C(=O)O)c1 | 13% | 6.9% | > 128 µM | > 128 µM | – | –
COC(=O)[C@H](CC(C)C)NC(=O)c1cccc(/C=C2\SC(=O)N(CC(=O)NOCc3ccccc3)C2=O)c1 | 19% | 4.2% | > 128 µM | > 128 µM | 51.9% | –
C=CCONC(=O)CN1C(=O)S/C(=C\c2ccc(C(=O)N[C@H](C(=O)OC)C(C)C)cc2)C1=O | 38% | 8.2% | > 128 µM | > 128 µM | 28.4% | –
C=CCONC(=O)CN1C(=O)S/C(=C\c2ccc(C(=O)N[C@@H](CC(C)C)C(=O)OC)cc2)C1=O | 6% | 4.4% | > 128 µM | > 128 µM | 67.3% | –
NNC(=O)c1ccncc1 [ISONIAZID] | – | 100% | – | – | – | –
